Measured values as given in patent US11445724B2, “Insecticidal compounds” (SYNGENTA PARTICIPATIONS AG, priority 2013, dated 2022).

Tests used:
Format in all cases: in vivo
[1] = test system: Diabrotica balteata (Corn root worm); assay: Diabrotica balteata (Corn root worm) larval mortality, artificial diet in 24-well MTP; conditions: 120 h, application rate 200 ppm (concentration in well 18 ppm), L2 larvae, larval mortality after 5 days
[2] = test system: Myzus persicae (Green peach aphid); assay: Myzus persicae (Green peach aphid) mortality, sprayed sunflower leaf discs; conditions: foliar, 144 h, 200 ppm spray on sunflower leaf discs, mixed ages, mortality 6 DAT
[3] = test system: Myzus persicae (Green peach aphid); assay: Myzus persicae (Green peach aphid) mortality, test compounds mixed with Sucrose solution under Parafilm; conditions: 120 h, 12.5 ppm in Sucrose solution, infested pea seedlings on Parafilm, mortality 5 days after infestation
[4] = test system: Plutella xylostella (Diamond back moth); assay: Plutella xylostella (Diamond back moth) larval mortality, artificial diet in 24-well MTP; conditions: 144 h, application rate 200 ppm (concentration in well 18 ppm), L2 larvae, larval mortality after 6 days
[5] = test system: Spodoptera littoralis (Egyptian cotton leafworm); assay: Spodoptera littoralis (Egyptian cotton leafworm) mortality, sprayed cotton leaf discs; conditions: foliar, 72 h, 200 ppm spray on cotton leaf discs, L1 larvae, mortality 3 DAT
[6] = test system: Tetranychus urticae (Two-spotted spider mite); assay: Tetranychus urticae (Two-spotted spider mite) mortality, sprayed bean leaf discs; conditions: foliar, 192 h, 200 ppm spray on bean leaf discs, mixed ages, egg, larval and adult mortality after 8 days
[7] = test system: Thrips tabaci (Onion thrips); assay: Thrips tabaci (Onion thrips) mortality, sprayed sunflower leaf discs; conditions: foliar, 168 h, 200 ppm spray on sunflower leaf discs, mixed ages, mortality after 7 days

COc1c(NC(=O)c2ccc([N+](=O)[O-])cc2Cl)cccc1C(=O)Nc1c(Cl)cc(C(F)(C(F)(F)F)C(F)(F)F)cc1OC(F)F [Compound 86]
≥ 80%: pest or weed control at 200 ppm [1] | pest or weed control at 200 ppm [2] | pest or weed control at 12.5 ppm [3] | pest or weed control at 200 ppm [4] | pest or weed control at 200 ppm [5] | pest or weed control at 200 ppm [6] | pest or weed control at 200 ppm [7]

COc1c(C(=O)Nc2c(Br)cc(C(F)(C(F)(F)F)C(F)(F)F)cc2OC(F)F)cccc1N(C)C(=O)c1ccncc1 [Compound 102]
≥ 80%: pest or weed control at 200 ppm [1] | pest or weed control at 200 ppm [2] | pest or weed control at 12.5 ppm [3] | pest or weed control at 200 ppm [4] | pest or weed control at 200 ppm [5] | pest or weed control at 200 ppm [6] | pest or weed control at 200 ppm [7]

CCN(C(=O)c1ccc(C#N)cc1)c1cccc(C(=O)Nc2c(Br)cc(C(F)(C(F)(F)F)C(F)(F)F)cc2OC(F)F)c1F [Compound 10]
≥ 80%: pest or weed control at 200 ppm [1] | pest or weed control at 200 ppm [2] | pest or weed control at 12.5 ppm [3] | pest or weed control at 200 ppm [4] | pest or weed control at 200 ppm [5] | pest or weed control at 200 ppm [6] | pest or weed control at 200 ppm [7]

O=C(Nc1cccc(C(=O)Nc2c(Br)cc(C(F)(C(F)(F)F)C(F)(F)F)cc2OC(F)F)c1F)c1ccc([N+](=O)[O-])cc1Cl [Compound 25]
≥ 80%: pest or weed control at 200 ppm [1] | pest or weed control at 200 ppm [2] | pest or weed control at 12.5 ppm [3] | pest or weed control at 200 ppm [4] | pest or weed control at 200 ppm [5] | pest or weed control at 200 ppm [6] | pest or weed control at 200 ppm [7]

CCN(C(=O)c1ccncc1)c1cccc(C(=O)Nc2c(Br)cc(C(F)(C(F)(F)F)C(F)(F)F)cc2OC(F)F)c1OC [Compound 4]
≥ 80%: pest or weed control at 200 ppm [1] | pest or weed control at 200 ppm [2] | pest or weed control at 12.5 ppm [3] | pest or weed control at 200 ppm [4] | pest or weed control at 200 ppm [5] | pest or weed control at 200 ppm [6] | pest or weed control at 200 ppm [7]

O=C(Nc1cccc(C(=O)Nc2c(Cl)cc(C(F)(C(F)(F)F)C(F)(F)F)cc2OC(F)F)c1F)c1ccc([N+](=O)[O-])cc1 [Compound 49]
≥ 80%: pest or weed control at 200 ppm [1] | pest or weed control at 200 ppm [2] | pest or weed control at 12.5 ppm [3] | pest or weed control at 200 ppm [4] | pest or weed control at 200 ppm [5] | pest or weed control at 200 ppm [6] | pest or weed control at 200 ppm [7]

O=C(Nc1cccc(C(=O)Nc2c(Cl)cc(C(F)(C(F)(F)F)C(F)(F)F)cc2OC(F)F)c1F)c1ccc(C(F)(F)F)cc1 [Compound 64]
≥ 80%: pest or weed control at 200 ppm [1] | pest or weed control at 200 ppm [2] | pest or weed control at 12.5 ppm [3] | pest or weed control at 200 ppm [4] | pest or weed control at 200 ppm [5] | pest or weed control at 200 ppm [6] | pest or weed control at 200 ppm [7]

COc1c(NC(=O)c2ccncc2)cccc1C(=O)Nc1c(Cl)cc(C(F)(C(F)(F)F)C(F)(F)F)cc1OC(F)F [Compound 16]
≥ 80%: pest or weed control at 200 ppm [1] | pest or weed control at 200 ppm [2] | pest or weed control at 12.5 ppm [3] | pest or weed control at 200 ppm [4] | pest or weed control at 200 ppm [5] | pest or weed control at 200 ppm [6] | pest or weed control at 200 ppm [7]

O=C(Nc1cccc(C(=O)Nc2c(Cl)cc(C(F)(C(F)(F)F)C(F)(F)F)cc2OC(F)F)c1F)c1ccccc1 [Compound 68]
≥ 80%: pest or weed control at 200 ppm [1] | pest or weed control at 200 ppm [2] | pest or weed control at 12.5 ppm [3] | pest or weed control at 200 ppm [4] | pest or weed control at 200 ppm [5] | pest or weed control at 200 ppm [6] | pest or weed control at 200 ppm [7]

COc1c(NC(=O)c2ccc(OC(F)(F)F)cc2)cccc1C(=O)Nc1c(Br)cc(C(F)(C(F)(F)F)C(F)(F)F)cc1OC(F)F [Compound 50]
≥ 80%: pest or weed control at 200 ppm [1] | pest or weed control at 200 ppm [2] | pest or weed control at 12.5 ppm [3] | pest or weed control at 200 ppm [4] | pest or weed control at 200 ppm [5] | pest or weed control at 200 ppm [6] | pest or weed control at 200 ppm [7]

O=C(Nc1cccc(C(=O)Nc2c(Br)cc(C(F)(C(F)(F)F)C(F)(F)F)cc2OC(F)F)c1F)c1ccc(C(F)(F)F)cc1 [Compound 28]
≥ 80%: pest or weed control at 200 ppm [1] | pest or weed control at 200 ppm [2] | pest or weed control at 12.5 ppm [3] | pest or weed control at 200 ppm [4] | pest or weed control at 200 ppm [5] | pest or weed control at 200 ppm [6] | pest or weed control at 200 ppm [7]

COc1c(NC(=O)c2ccc(C(F)(F)F)cc2)cccc1C(=O)Nc1c(Cl)cc(C(F)(C(F)(F)F)C(F)(F)F)cc1OC(F)F [Compound 89]
≥ 80%: pest or weed control at 200 ppm [1] | pest or weed control at 200 ppm [2] | pest or weed control at 12.5 ppm [3] | pest or weed control at 200 ppm [4] | pest or weed control at 200 ppm [5] | pest or weed control at 200 ppm [6] | pest or weed control at 200 ppm [7]

COc1c(NC(=O)c2ccc(C(F)(F)F)cc2)cccc1C(=O)Nc1c(Br)cc(C(F)(C(F)(F)F)C(F)(F)F)cc1OC(F)F [Compound 54]
≥ 80%: pest or weed control at 200 ppm [1] | pest or weed control at 200 ppm [2] | pest or weed control at 12.5 ppm [3] | pest or weed control at 200 ppm [4] | pest or weed control at 200 ppm [5] | pest or weed control at 200 ppm [6] | pest or weed control at 200 ppm [7]

COc1c(C(=O)C(C(C)=O)c2c(Br)cc(C(F)(C(F)(F)F)C(F)(F)F)cc2OC(F)F)cccc1N(C)C(=O)c1ccncc1 (stereo not shown) [Compound 99]
≥ 80%: pest or weed control at 200 ppm [1] | pest or weed control at 200 ppm [2] | pest or weed control at 12.5 ppm [3] | pest or weed control at 200 ppm [4] | pest or weed control at 200 ppm [5] | pest or weed control at 200 ppm [6] | pest or weed control at 200 ppm [7]

COc1c(NC(=O)c2ccc(C#N)cc2)cccc1C(=O)Nc1c(Cl)cc(C(F)(C(F)(F)F)C(F)(F)F)cc1OC(F)F [Compound 14, N-[2-chloro-6-(difluoromethoxy)-4-[1,2,2,2-tetrafluoro-1-(trifluoromethyl)ethyl]phenyl]-3-[(4-cyanobenzoyl)amino]-2-methoxy-benzamide]
≥ 80%: pest or weed control at 200 ppm [1] | pest or weed control at 200 ppm [2] | pest or weed control at 12.5 ppm [3] | pest or weed control at 200 ppm [4] | pest or weed control at 200 ppm [5] | pest or weed control at 200 ppm [6] | pest or weed control at 200 ppm [7]

COc1c(NC(=O)c2ccc([N+](=O)[O-])cc2)cccc1C(=O)Nc1c(Br)cc(C(F)(C(F)(F)F)C(F)(F)F)cc1OC(F)F [Compound 39]
≥ 80%: pest or weed control at 200 ppm [1] | pest or weed control at 200 ppm [2] | pest or weed control at 12.5 ppm [3] | pest or weed control at 200 ppm [4] | pest or weed control at 200 ppm [5] | pest or weed control at 200 ppm [6] | pest or weed control at 200 ppm [7]

O=C(Nc1cccc(C(=O)Nc2c(Br)cc(C(F)(C(F)(F)F)C(F)(F)F)cc2OC(F)F)c1F)c1ccc(F)c(C(F)(F)F)c1 [Compound 27]
≥ 80%: pest or weed control at 200 ppm [1] | pest or weed control at 200 ppm [2] | pest or weed control at 12.5 ppm [3] | pest or weed control at 200 ppm [4] | pest or weed control at 200 ppm [5] | pest or weed control at 200 ppm [6] | pest or weed control at 200 ppm [7]

COc1c(NC(=O)c2ccncc2)cccc1C(=O)Nc1c(Br)cc(C(F)(C(F)(F)F)C(F)(F)F)cc1OC(F)F [Compound 3]
≥ 80%: pest or weed control at 200 ppm [1] | pest or weed control at 200 ppm [2] | pest or weed control at 12.5 ppm [3] | pest or weed control at 200 ppm [4] | pest or weed control at 200 ppm [5] | pest or weed control at 200 ppm [6] | pest or weed control at 200 ppm [7]

CCN(C(=O)c1ccc(F)cc1Cl)c1cccc(C(=O)Nc2c(Cl)cc(C(F)(C(F)(F)F)C(F)(F)F)cc2OC(F)F)c1OC [Compound 158]
≥ 80%: pest or weed control at 200 ppm [1] | pest or weed control at 200 ppm [2] | pest or weed control at 12.5 ppm [3] | pest or weed control at 200 ppm [4] | pest or weed control at 200 ppm [5] | pest or weed control at 200 ppm [6] | pest or weed control at 200 ppm [7]

CCN(C(=O)c1cc[n+]([O-])cc1)c1cccc(C(=O)Nc2c(Br)cc(C(F)(C(F)(F)F)C(F)(F)F)cc2OC(F)F)c1F [Compound 11, N-[3-[[2-bromo-6-(difluoromethoxy)-4-[1,2,2,2-tetrafluoro-1-(trifluoromethyl)ethyl]phenyl]carbamoyl]-2-fluoro-phenyl]-N-ethyl-1-oxido-pyridin-1-ium-4-carboxamide]
≥ 80%: pest or weed control at 200 ppm [1] | pest or weed control at 200 ppm [2] | pest or weed control at 12.5 ppm [3] | pest or weed control at 200 ppm [4] | pest or weed control at 200 ppm [5] | pest or weed control at 200 ppm [6] | pest or weed control at 200 ppm [7]

O=C(Nc1cccc(C(=O)Nc2c(Cl)cc(C(F)(C(F)(F)F)C(F)(F)F)cc2OC(F)F)c1F)c1ccc(F)cc1F [Compound 78]
≥ 80%: pest or weed control at 200 ppm [1] | pest or weed control at 200 ppm [2] | pest or weed control at 12.5 ppm [3] | pest or weed control at 200 ppm [4] | pest or weed control at 200 ppm [5] | pest or weed control at 200 ppm [6] | pest or weed control at 200 ppm [7]

O=C(Nc1cccc(C(=O)Nc2c(Br)cc(C(F)(C(F)(F)F)C(F)(F)F)cc2OC(F)F)c1F)c1ccc([N+](=O)[O-])cc1 [Compound 22]
≥ 80%: pest or weed control at 200 ppm [1] | pest or weed control at 200 ppm [2] | pest or weed control at 12.5 ppm [3] | pest or weed control at 200 ppm [4] | pest or weed control at 200 ppm [5] | pest or weed control at 200 ppm [6] | pest or weed control at 200 ppm [7]
